Experimental data reported in patent US5016655A, “Cigarette manufacturing process” (priority 1989, dated 1991).
“Also recorded” adds a separate entry of the source. Where two headings read alike, the source gives them in different places.

Legend:
[1] = tested on: localization of radioactivity ([14C]NNN) in salivary duct and bronchial epithelium and liver; assay: whole-body autoradiography of [14C]NNN localization after oral alcohols (Example 1, FIG. 1); format: in vivo, male C57BL/6J mice
Procedure: One hour later, the mice were anesthetized lightly with ether and frozen by immersion in dry ice/hexane. Twenty u-thick whole-body sagittal sections of the frozen mice were taken onto Scotch tape and were then processed for whole-body autoradiography by known methods. See W. Waddell et al., Drug Fate and Metabolism: Methods and Techniques, E. R. Garrett and J. L. Hirtz, Eds. […] Photometric density in areas of the developed autoradiographs was measured with an ADG Instruments photometer and a photocell with an aperture of three mm lying on the easel of a photographic enlarger. The X-ray film was placed in the enlarger and raised to produce a magnification of thirty-five times on the easel.
NNN. […] (Twenty minutes is the average time it takes for alcohols introduced by oral intubation into mice to reach the peak blood level.)
The number within each bar thereof represents the dose in g/kg of that alcohol which was administered orally twenty minutes before the [^14 C] NNN was given intraveously. The mice were frozen one hour after receiving the [^14 C] NNN. The means for each mouse were from fifteen measurements on random areas of that site (five absorbancies on each of three autoradiographs) after setting blood in each on zero.

[2] = Table V; cited from earlier work
[3] = tested on: human; conditions: cited from earlier work
[4] = tested on: localization of radioactivity ([14C]NNN) in bronchial epithelium; assay: effect of substances on localization of radioactivity one hour after intravenous [14C]NNN (Table VI); format: in vivo, mice; conditions: solids at ambient temperature; for decrease in the localization of radioactivity in bronchial epithelium: one hour after intravenous [14C]NNN
Description: Table VI below lists the compounds tested for their effect on the localization of radioactivity in bronchial epithelium one hour after intravenous administration of [^14 C]NNN. Unless indicated otherwise, the compounds were parenterally administered acutely at various times prior to [^14 C]NNN. In many cases only one mouse was studied for each compound. […].
Effect of substances on the localization of radioactivity in bronchial epithelium of mice one hour after intravenously receiving [^14 C] nitrosonornicotine.
For all the remaining compounds the general protocol was to administer the potential blocker some minutes prior to administration of the [^14 C]NNN. Potential blockers were given orally, intraperitoneally or by inhalation, and the [^14 C]NNN was given intravenously.

[5] = tested on: rats; conditions: rats, oral; cited from earlier work
[6] = tested on: localization of nitrosamines (NNN, NNK) in tissues; assay: nitrosamine delocalization / blocking, general statements; conditions: in vivo
[7] = tested on: nitrosamine ([14C]NNN) localization; assay: imidazole intraperitoneal, [14C]NNN autoradiography (Examples 4 and 5); format: in vivo, male C57BL/6J mouse; conditions: ip
Procedure: An adult male C57BL/6J mouse was injected intraperitoneally with 0.02 ml/g body weight of a solution of imidazole in water. The imidazole solution concentration was such that 0.05 g of imidazole was delivered per kg of body weight. […] See Example 1.
Example 4 was duplicated except that the adult mouse was injected intraperitoneally with 0.02 ml/g body weight of a solution of imidazole in water, wherein the solution concentration was such that 0.25 g of imidazole was delivered per kg of body weight.

[8] = tested on: localization of radioactivity ([14C]NNN) in bronchial epithelium; assay: orally administered alcohols, localization of radioactivity after intravenous [14C]NNN; format: in vivo, mice; conditions: gavage 1.0 g/kg, 20 min before iv [14C]NNN
Procedure: For each of these alcohols, the mouse was fasted overnight, the alcohol in aqueous solution at a dose of 1.0 g/kg was administered by gavage and after twenty minutes the [^14 C]NNN was injected intravenously. All mice were sacrificed one hour after the [^14 C]NNN treatment and processed for whole-body autoradiography,as described previously.

[9] = tested on: nitrosamine formation on epithelial membranes; tumor development; conditions: cited from earlier work
[10] = tested on: tumor formation; conditions: rat, in vivo; cited from earlier work
[11] = tested on: localization of radioactivity of [14C]NNN in bronchial epithelium; assay: alcohols by inhalation, localization of radioactivity of [14C]NNN (Table VII); format: in vivo, mice; conditions: mouse, in vivo
Procedure: Additional alcohols were tested for their effects on the localization of radioactivity of [^14 C]NNN in bronchial epithelium when the alcohols were administered by inhalation. For these studies, two ml of the alcohol were placed in the bottom of a 600 ml glass beaker. A wire mesh platform was constructed so that the mouse was positioned approximately three-quarter to one inch above the alcohol. The beaker was kept tightly sealed unless otherwise indicated. All mice were fasted overnight, except where noted, and sacrificed one hour after intravenous [^14 C]NNN administration. These mice were also processed for whole-body autoradiography. Although the protocols varied slightly as summarized below, these minor differences should not effect the results.
A. Exposures in beakers maintained at 50° C. (plus or minus
B. Exposure in beakers at room temperature. Beakers were
C. Beakers equilibrated with alcohols at least 20 min in […]

CC(C)(C)O [t-butanol]
localization of [14C]NNN in bronchial epithelium ([1]; high dosage): almost completely abolished; also recorded: greatest inhibition

CCCCCCCCCCCCCCCCO [Cetyl alcohol, hexadecanol]
Boiling Point [2]: 344 °C | Toxicity ([3]; Table V): Non-toxic | Toxicity [3]: non-toxic

CCO [ethanol]
localization of radioactivity in salivary duct and bronchial epithelium and in both periportal and central areas of the liver ([1]; 20 min before iv [14C]NNN): reduced

c1ccc2ccccc2c1 [naphthalene]
decrease in the localization of radioactivity in bronchial epithelium [4]: significant decrease

CCCO [propyl alcohol, n-propanol]
Acute Oral LD50 [5]: 5.4 q/kg

CCCCCCC(C)O (stereo not shown) [Capryl alcohol]
Boiling Point [2]: 178 °C | Toxicity ([3]; Table V): Low toxity

OCC=Cc1ccccc1 [Cinnamyl alcohol]
Boiling Point [2]: 257.5 °C

OCCC(O)CO (stereo not shown) [1,2,4-ButanetrioI, 1,2,4-butanetriol]
Boiling Point [2]: 172 °C | Toxicity ([3]; Table V): Non-toxic

CCCCCCCCCCCCO [dodecanol, 98%, dodecanol]
Acute Oral LD50 [5]: 40 q/kg

NCCCC(N)(C(=O)O)C(F)F (stereo not shown) [difluoromethylornithine]
response on the uptake of radioactivity in the bronchial epithelium [4]: minimal response

c1cn[nH]c1 [pyrazole]
nitrosamine delocalization / inhibition of nitrosamine localization [6]: found to delocalize nitrosamines | response on the uptake of radioactivity in the bronchial epithelium [4]: minimal response

c1c[nH]cn1 [imidazole]
nitrosamine delocalization / inhibition of nitrosamine localization [6]: found to delocalize nitrosamines | decrease in the localization of radioactivity in bronchial epithelium [4]: significant decrease | nitrosamine delocalization ([7]; 0.05 g/kg): Significant nitrosamine delocalization | nitrosamine delocalization ([7]; 0.25 g/kg): significant delocalization of nitrosamine

CC1=C(/C=C/C(C)=C/C=C/C(C)=C/CO)C(C)(C)CCC1 [retinol]
response on the uptake of radioactivity in the bronchial epithelium [4]: minimal response

CCCC(C)O (stereo not shown) [2-pentanol]
decrease in the localization of radioactivity in bronchial epithelium [8]: significant decrease

O=C1O[C@H]([C@@H](O)CO)C(O)=C1O [Vitamin C, ascorbic acid]
effect on formation of nitrosamines on epithelial membranes [9]: prevent the formation of nitrosamines

CC1CCC(C(C)C)C(O)C1 (stereo not shown) [menthol, reference compound]
Boiling Point [2]: 216 °C | nitrosamine delocalization / inhibition of nitrosamine localization [6]: does not have the same nitrosamine blocking effect; also recorded: does not inhibit nitrosamine localization | Toxicity ([3]; Table V): Flavor Agent

CCC(C)CO (stereo not shown) [active amyl alcohol, 2-methyl-1-butanol]
decrease in the localization of radioactivity in bronchial epithelium [8]: significant decrease | Acute Oral LD50 [5]: 4.9 q/kg

CCC(C)O (stereo not shown) [sec-butyl alcohol, sec-butanol]
decrease in the localization of radioactivity in bronchial epithelium [8]: significant decrease

S=C=NCc1ccccc1 [benzyl isothiocyanate]
nitrosamine delocalization / inhibition of nitrosamine localization [6]: found to delocalize nitrosamines

CCCCCCCCCCCCCCCCCCO [Stearyl alcohol, octadecanol]
Boiling Point [2]: 210 °C | Toxicity ([3]; Table V): Non-toxic | Toxicity [3]: non-toxic

CC(C)(C(=O)c1cccnc1)c1cccnc1 [metyrapone]
decrease in the localization of radioactivity in bronchial epithelium [4]: significant decrease

CC(C)CO [isobutyl alcohol, isobutanol]
decrease in the localization of radioactivity in bronchial epithelium [8]: significant decrease | Acute Oral LD50 [5]: 2.46 q/kg

CN(CCCC(=O)c1cccnc1)N=O [NNK]
carcinogenicity / tumor induction [10]: powerful environmental carcinogens

CC(O)CCO (stereo not shown) [1,3 Butanediol]
Boiling Point [2]: 207 °C | Toxicity ([3]; Table V): Non-toxic

CCCCCCO [1-hexanol]
potency as inhibitor in mice [11]: among the most potent inhibitors
